Results published in patent US6083974A, “Benzothiophenecarboxamide derivatives and PGD2 antagonists comprising them” (Shionogi & Co., Ltd., priority 1996, dated 2000).

Key:
PGD2 receptor [1] = target: T1, PGD2 receptor (Homo sapiens, UniProt Q13258); experiment: Antagonistic activity against PGD2 receptor using human platelet (inhibition of PGD2-induced cAMP increase); assay type: cell-based; settings: human washed platelets, 0.1 μM PGD2, 3-isobutyl-1-methylxanthine 0.5 mM, 37° C.; read-out: IC50, inhibition of cAMP increased by PGD2
T1 construct: A suspension adjusted to contain platelet at a final concentration of; endogenous in cells; host or cells: washed human platelets from peripheral blood of a healthy volunteer
T1 sequence (Q13258 1-359): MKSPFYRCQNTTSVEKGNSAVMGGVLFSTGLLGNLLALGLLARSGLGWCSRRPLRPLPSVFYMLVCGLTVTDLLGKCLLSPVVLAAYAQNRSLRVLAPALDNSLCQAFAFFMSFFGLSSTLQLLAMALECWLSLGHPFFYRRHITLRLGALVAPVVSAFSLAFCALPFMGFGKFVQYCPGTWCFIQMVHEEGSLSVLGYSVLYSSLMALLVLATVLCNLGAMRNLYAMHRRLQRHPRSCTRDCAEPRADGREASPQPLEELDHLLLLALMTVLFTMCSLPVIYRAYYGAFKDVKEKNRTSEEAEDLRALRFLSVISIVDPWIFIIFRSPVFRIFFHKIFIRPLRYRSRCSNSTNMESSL
Method: Evaluation of Antagonistic Activity Against PGD2 Receptor Using Human Platelet
Peripheral blood was obtained from a healthy volunteer using a syringe in which 1/9 volume of citric acid/dextrose solution has been previously added. The syringe was subjected to centrifugation at 180 g for 10 min to obtain the supernatant (PRP:platelet rich plasma). the resultant PRP was washed 3 times with a washing buffer and the number of platelet was counted with a micro cell counter. A suspension adjusted to contain platelet at a final concentration of 5×10^8 /ml was warmed at 37° C., and then subjected to the pre-treatment with 3-isobutyl-1-methylxanthine (0.5 mM) for 5 min. To the suspension was added a test compound diluted at various concentration. Ten-minute later, the reaction was induced by the addition of 0.1 μM PGD2 and , 2-minute later, stopped by the addition of hydrochloric acid. The platelet was destroyed with an ultrasonic homogenizer. After centrifugation, the cAMP in the supernatant was determined by radioummunoassay. PGD2 receptor antagonism of a drug was evaluated as follows. The inhibition rate regarding cAMP increased by the addition of PGD2 was determined at individual concentration, and then the concentration of the drug required for 50% inhibition (IC50) was calculated.

Hartley male guinea pig = experiment: Nasal blocking model (intranasal pressure after OVA antigen exposure); assay type: in vivo; settings: oral 60 min before 3% OVA antigen exposure, dose not given
Method: Experiment Using Nasal Blocking Model
The method used for measuring the intranasal pressure for evaluating the anti-nasal blockage using guinea pigs is described below.
A 1% ovalbumin (OVA) solution was treated with an ultrasonic nebulizer to obtain an aerosol. Hartley male guinea pig was sensitized by inhaling twice the aerosol for 10 min at one-week interval. Seven-day after the sensitization, the guinea pig was exposed to an antigen to initiate the reaction. Briefly, the trachea was incised under the anesthesia with pentobarbital (30 mg/kg, i.p.) and cannulas were inserted at the pulmonary side was connected with an artificial respirator that provides 4 ml air 60 times/min. After arresting the spontaneous respiration of the guinea pig with Gallamin (2 mg/kg, i.v.), air was supplied to the snout side with an artificial respirator at the frequency of 70 times/min, and the flow rate of 4 ml air/time, and the atmospheric pressure required for the aeration was measured by the use of a transducer fitted at the branch. The measurement was used as a parameter of the nasal cavity resistance. The exposure of an antigen was carried out by generating aerosol of 3% OVA solution for 3 min between the respirator and the nasal cavity cannula. The test drug was administered orally 60 min before the antigen exposure. […]

PGD2 receptor [2] = target: T1, PGD2 receptor; experiment: Binding to PGD2 Receptor (inhibition of [3H]PGD2 binding to human platelet membrane fraction); settings: human platelet membrane fraction (0.1 mg), 5 nM [3H]PGD2, pH 7.4, 4° C., 90 min
Method: (1) Preparation of Human Platelet Membrane Fraction
Blood sample was obtained using a plastic syringe containing 3.8% sodium citrate from the vein of healthy volunteers (adult male and female), put into a plastic test tube and mixed gently by rotation. The sample was then centrifuged at 1800 rpm, 10 min at room temperature, and the supernatant containing PRP (platelet-rich plasma) was collected. The PRP was recentrifuged at2300 rpm, 22 min at room temperature to obtain platelets. The platelets were homogenized using a homogenizer (Ultra-Turrax) followed by centrifugation 3 times at 20,000 rpm, 10 min at 4° C. to obtain a platelet membrane fraction. After protein determination, the membrane fraction was adjusted to 2 mg/ml and preserved in a refrigerator at -80° C. until use.
(2) Binding to PGD2 Receptor
To a binding-reaction solution (50 mM Tris/HCl, pH 7.4, 5 mM MgCl2) (0.2 ml) were added to the human platelet membrane fraction (0.1 mg) and 5 nM [^3 H]PGD2 (115 Ci/mmol), and reacted at 4° C. for 90 min. After the reaction completed, the reaction mixture was filtered through a glass fiber filter paper, washed several times with cooled saline, and measured the radioactivity retained on the filter paper. The specific binding was calculated by subtracting the non-specific binding (the binding in the presence of 10 μM PGD2) from the total binding. The inhibitory activity of each compound was expressed as the concentration required for 50% inhibition (IC50), which was determined by depicting a substitution curve by plotting the binding ratio (%) in the presence of each compound, where the binding ratio in the absence of a test compound is 100%.

eosinophils = experiment: Infiltration of eosinophils in the nasal cavity by an antigen challenge; assay type: in vivo; settings: guinea pig, oral 1, 3 and 10 mg/kg, 1 hr before antigen challenge; marked columns not given
Method: Activity on Infiltration of Eosionophils in the Nasal Cavity by an Antigen Challenge
To a Hartley male guinea pig was injected intraperitoneally cyclophosphamide (30 mg/kg), after 2 day 1 ml of suspension containing 1 mg of ovalbumin (OVA) and 100 mg of aluminum hydroxide was injected intraperitoneally. After 3 weeks, 1 ml of mixture of OVA (10 μg) and aluminum hydroxide (100 mg) was intraperitoneally injected as additional immunization to sensitize systemically. After the lapse of 3 weeks, local sensitization, each 10 μl of 1% OVA solution was dripped in both nasal cavities four times at 2-4 day intervals. After 5-7 days from the final sensitization, nasal antigen challenge was performed by dripping 10 μl of 1% OVA solution to the guinea pigs in the both nasal cavity. Five hours after nasal challenge, the guinea pigs were exsanguinated under the anesthetization. The nasal airways were washed by infusing 10 ml of saline, and the washings were collected. The washing were centrifuged, the cell pellets were resuspended in 100 μl of saline, and the total cells were counted by the Turk stain. Then smear samples were prepared, and the cells were classified after the May-Grunwald-Giemsa stain. The eosinophil number was determined by multiplying the rate of eosinophils with the total cells. […]

| IC50 (PGD2 receptor [1]) | IC50 (PGD2 receptor [2]) | SMILES | Inhibitory Rate, intranasal pressure AUC for 30 min vs vehicle (Hartley male guinea pig) | inhibition of infiltration of eosinophils in the nasal cavity, significance versus vehicle (FIG. 1) (eosinophils) |
| --- | --- | --- | --- | --- |
| 55 nM | – | CC1(C)[C@H]2C[C@@H](C/C=C\CCCC(=O)O)[C@@H](NC(=O)c3csc4ccc(O)cc34)[C@@H]1C2 [IA-c-1] | – | – |
| 61 nM | – | CC1(C)[C@H]2C[C@@H](C/C=C/CCCC(=O)O)[C@@H](NC(=O)c3csc4ccc(O)cc34)[C@@H]1C2 [IA-c-2] | – | – |
| 57 nM | – | CC1(C)[C@H]2C[C@@H](NC(=O)c3csc4ccc(O)cc34)[C@H](C/C=C\CCCC(=O)O)[C@@H]1C2 [IB-b'-3] | – | – |
| 28 nM | – | CC1(C)[C@H]2C[C@H](C/C=C/CCCC(=O)O)[C@@H](NC(=O)c3csc4ccc(O)cc34)[C@@H]1C2 [IA-a-17] | – | – |
| 41 nM | – | CC1(C)[C@H]2C[C@H](NC(=O)c3csc4ccccc34)[C@@H](C/C=C\CCCC(=O)O)[C@@H]1C2 [IB-a'-1] | – | – |

Second part, the molecule before the results:

| SMILES | IC50 (PGD2 receptor [1]) | IC50 (PGD2 receptor [2]) | Inhibitory Rate, intranasal pressure AUC for 30 min vs vehicle (Hartley male guinea pig) | inhibition of infiltration of eosinophils in the nasal cavity, significance versus vehicle (FIG. 1) (eosinophils) |
| --- | --- | --- | --- | --- |
| CC1(C)[C@H]2C[C@H](C/C=C\CCCC(=O)O)[C@@H](NC(=O)c3csc4ccc(O)cc34)[C@@H]1C2 [IA-a-5] | 1.3 nM | 0.4 nM | 96% | significantly different from vehicle at p<0.01 |
| CC1(C)[C@H]2C[C@H](C/C=C\CCCC(=O)O)[C@@H](NC(=O)c3csc4ccc(Br)cc34)[C@@H]1C2 [IA-a-2] | – | 3.3 nM | – | – |
| CC(=O)Oc1ccc2scc(C(=O)N[C@@H]3[C@@H](C/C=C\CCCC(=O)O)C[C@H]4C[C@@H]3C4(C)C)c2c1 [IA-a-9] | 0.21 nM | 6.5 nM | – | – |
| CC1(C)[C@H]2C[C@H](C/C=C\CCCC(=O)O)[C@@H](NC(=O)c3csc4cc(O)ccc34)[C@@H]1C2 [IA-a-7] | 2.8 nM | 1.3 nM | – | – |
